Reference: patent US5190741A, “Agents for diagnosing and treating melanomas, aromatic halogenated derivatives usable as such agents and their preparation” (Institut National de la Sante et de la Recherche Medicale …, priority 1989, dated 1993)
Read-outs that look alike come from different tables or passages of the source.

What was measured:
[1] = Tissue distribution in Swiss nu/nu SSCUP mice bearing Dau; format: in vivo, human; conditions: mouse, iv, 3 umol/animal
Protocol: The study of the tissue distribution of the ^125 I labelled compounds was performed in mice bearing grafted melanomas (cf. autoradiograms above). […] The animals are sacrificed at different time intervals of 1 to 24 hours after the injection. The blood is collected and the principal organs are excised. Aliquots are weighed and the radioactivity of the samples is measured in a […] 1191 counter (analytic tracer). The counting yield for iodine 125 is 60%. The results are expressed: as a percentage of the injected dose bound per g of tissue (% ID/g); in the form of the ratios [formula] This ratio reflects more precisely the selectivity of a molecule for an organ (tables 2, 4, 6, 8, 10 and 12).

[2] = tested on: B16 murine melanoma; experiment: Autoradiograms, C57 BL6 mice bearing B16; format: in vivo, mouse
Protocol: The autoradiograms are carried out in mice bearing grafted melanomas:
a. C57 BL6 bearing the B16 murine melanoma.
The animals bearing grafted tumors receive the labelled compounds in the form of the hydrochloride in saline solution (3.7 to 5×10^5 Bq/animal) in a caudal vein. At different time intervals after the administration of the compounds (from 15 minutes to 24 hours) the mice are anesthetized with ether and plunged into liquid nitrogen.
30 μm sections, parallel to a sagittal plane, are prepared in a freezing microtome (TS 260, SLEE) according to the protocol described by Ullberg.

[3] = LD50 determination, i.v. (Karber and Behrens); conditions: mouse, in vivo, iv
Source text: (§1) The determination of the LD50 is made in the mouse after i.v. injection of the molecules according to the methodology described by Karber and Behrens.
(§2) male nu/nu SSCUP nude mice bearing heterotransplants of human melanomas.

[4] = tested on: male nu/nu SSCUP nude mice bearing heterotransplants (Beu melanoma); experiment: LD50 determination, i.v. (Karber and Behrens); conditions: mouse, in vivo, iv
Source text: as §1, §2

[5] = intestine, read-out: intestine % ID/g
[6] = kidney, read-out: kidney % ID/g
[7] = muscle, read-out: muscle % ID/g
[8] = pancreas, read-out: pancreas % ID/g
[9] = plasma, read-out: plasma % ID/g
[10] = spleen, read-out: spleen % ID/g
[11] = stomach, read-out: stomach % ID/g
[12] = submaxillary glands, read-out: submaxillary glands % ID/g

SMILES: CCN(CC)CCNC(=O)c1ccc(I)cc1 [Derivative A, N-(2-diethylaminoethyl) 4-iodo benzamide]
- tissue uptake at 1 h ([1]; blood, read-out: blood % ID/g): 0.89 %ID/g
- tissue uptake at 2 h ([1]; blood, read-out: blood % ID/g): 0.52 %ID/g
- tissue uptake at 4 h ([1]; blood, read-out: blood % ID/g): 0.29 %ID/g
- tissue uptake at 6 h ([1]; blood, read-out: blood % ID/g): 0.23 %ID/g
- tissue uptake at 24 h ([1]; blood, read-out: blood % ID/g): 0.008 %ID/g
- tissue uptake at 8 h ([1]; blood, read-out: blood % ID/g): 0.14 %ID/g
- tissue uptake at 12 h ([1]; blood, read-out: blood % ID/g): 0.06 %ID/g
- tissue uptake at 1 h ([1]; brain, read-out: brain % ID/g): 1.4 %ID/g
- tissue uptake at 2 h ([1]; brain, read-out: brain % ID/g): 0.99 %ID/g
- tissue uptake at 4 h ([1]; brain, read-out: brain % ID/g): 0.51 %ID/g
- tissue uptake at 6 h ([1]; brain, read-out: brain % ID/g): 0.2 %ID/g
- tissue uptake at 24 h ([1]; brain, read-out: brain % ID/g): 0.002 %ID/g
- tissue uptake at 8 h ([1]; brain, read-out: brain % ID/g): 0.12 %ID/g
- tissue uptake at 12 h ([1]; brain, read-out: brain % ID/g): 0.02 %ID/g
- tissue uptake at 1 h ([1]; eye, read-out: eye % ID/g): 0.68 %ID/g
- tissue uptake at 2 h ([1]; eye, read-out: eye % ID/g): 0.54 %ID/g
- tissue uptake at 4 h ([1]; eye, read-out: eye % ID/g): 0.31 %ID/g
- tissue uptake at 6 h ([1]; eye, read-out: eye % ID/g): 0.16 %ID/g
- tissue uptake at 24 h ([1]; eye, read-out: eye % ID/g): 0.02 %ID/g
- tissue uptake at 8 h ([1]; eye, read-out: eye % ID/g): 0.1 %ID/g
- tissue uptake at 12 h ([1]; eye, read-out: eye % ID/g): 0.04 %ID/g
- tissue uptake at 1 h [1, 5]: 3.74 %ID/g
- tissue uptake at 2 h [1, 5]: 2.67 %ID/g
- tissue uptake at 4 h [1, 5]: 1.1 %ID/g
- tissue uptake at 6 h [1, 5]: 0.42 %ID/g
- tissue uptake at 8 h [1, 5]: 0.38 %ID/g
- tissue uptake at 12 h [1, 5]: 0.27 %ID/g
- tissue uptake at 24 h [1, 5]: 0.01 %ID/g
- tissue uptake at 1 h [1, 6]: 8.39 %ID/g
- tissue uptake at 2 h [1, 6]: 5.12 %ID/g
- tissue uptake at 4 h [1, 6]: 2.15 %ID/g
- tissue uptake at 6 h [1, 6]: 0.78 %ID/g
- tissue uptake at 24 h [1, 6]: 0.03 %ID/g
- tissue uptake at 8 h [1, 6]: 0.32 %ID/g
- tissue uptake at 12 h [1, 6]: 0.14 %ID/g
- tissue uptake at 1 h ([1]; liver, read-out: liver % ID/g): 5.68 %ID/g
- tissue uptake at 2 h ([1]; liver, read-out: liver % ID/g): 3.35 %ID/g
- tissue uptake at 4 h ([1]; liver, read-out: liver % ID/g): 2.1 %ID/g
- tissue uptake at 6 h ([1]; liver, read-out: liver % ID/g): 1.1 %ID/g
- tissue uptake at 24 h ([1]; liver, read-out: liver % ID/g): 0.1 %ID/g
- tissue uptake at 8 h ([1]; liver, read-out: liver % ID/g): 0.71 %ID/g
- tissue uptake at 12 h ([1]; liver, read-out: liver % ID/g): 0.3 %ID/g
- tissue uptake at 1 h ([1]; lungs, read-out: lungs % ID/g): 6.88 %ID/g
- tissue uptake at 2 h ([1]; lungs, read-out: lungs % ID/g): 5.63 %ID/g
- tissue uptake at 4 h ([1]; lungs, read-out: lungs % ID/g): 2.84 %ID/g
- tissue uptake at 6 h ([1]; lungs, read-out: lungs % ID/g): 0.76 %ID/g
- tissue uptake at 8 h ([1]; lungs, read-out: lungs % ID/g): 0.45 %ID/g
- tissue uptake at 12 h ([1]; lungs, read-out: lungs % ID/g): 0.11 %ID/g
- tissue uptake at 24 h ([1]; lungs, read-out: lungs % ID/g): 0.02 %ID/g
- tissue uptake at 1 h [1, 7]: 1.28 %ID/g
- tissue uptake at 2 h [1, 7]: 0.79 %ID/g
- tissue uptake at 4 h [1, 7]: 0.32 %ID/g
- tissue uptake at 6 h [1, 7]: 0.11 %ID/g
- tissue uptake at 24 h [1, 7]: 0.006 %ID/g
- tissue uptake at 8 h [1, 7]: 0.07 %ID/g
- tissue uptake at 12 h [1, 7]: 0.02 %ID/g
- tissue uptake at 1 h [1, 8]: 4.06 %ID/g
- tissue uptake at 2 h [1, 8]: 2.29 %ID/g
- tissue uptake at 4 h [1, 8]: 0.97 %ID/g
- tissue uptake at 6 h [1, 8]: 0.41 %ID/g
- tissue uptake at 8 h [1, 8]: 0.24 %ID/g
- tissue uptake at 12 h [1, 8]: 0.13 %ID/g
- tissue uptake at 24 h [1, 8]: 0.03 %ID/g
- tissue uptake at 1 h [1, 9]: 0.55 %ID/g
- tissue uptake at 2 h [1, 9]: 0.33 %ID/g
- tissue uptake at 4 h [1, 9]: 0.24 %ID/g
- tissue uptake at 6 h [1, 9]: 0.24 %ID/g
- tissue uptake at 24 h [1, 9]: 0.007 %ID/g
- tissue uptake at 8 h [1, 9]: 0.15 %ID/g
- tissue uptake at 12 h [1, 9]: 0.06 %ID/g
- tissue uptake at 1 h [1, 10]: 3.48 %ID/g
- tissue uptake at 2 h [1, 10]: 1.95 %ID/g
- tissue uptake at 4 h [1, 10]: 0.8 %ID/g
- tissue uptake at 6 h [1, 10]: 0.3 %ID/g
- tissue uptake at 8 h [1, 10]: 0.16 %ID/g
- tissue uptake at 12 h [1, 10]: 0.07 %ID/g
- tissue uptake at 24 h [1, 10]: 0.02 %ID/g
- tissue uptake at 1 h [1, 11]: 2.32 %ID/g
- tissue uptake at 2 h [1, 11]: 1.85 %ID/g
- tissue uptake at 4 h [1, 11]: 1.36 %ID/g
- tissue uptake at 6 h [1, 11]: 1.17 %ID/g
- tissue uptake at 8 h [1, 11]: 0.71 %ID/g
- tissue uptake at 12 h [1, 11]: 0.38 %ID/g
- tissue uptake at 24 h [1, 11]: 0.03 %ID/g
- tissue uptake at 1 h [1, 12]: 4.75 %ID/g
- tissue uptake at 2 h [1, 12]: 3.56 %ID/g
- tissue uptake at 4 h [1, 12]: 1.5 %ID/g
- tissue uptake at 6 h [1, 12]: 0.86 %ID/g
- tissue uptake at 8 h [1, 12]: 0.77 %ID/g
- tissue uptake at 12 h [1, 12]: 0.3 %ID/g
- tissue uptake at 24 h [1, 12]: 0.02 %ID/g
- tissue uptake at 1 h ([1]; tumor, read-out: tumor % ID/g): 1.51 %ID/g
- tissue uptake at 2 h ([1]; tumor, read-out: tumor % ID/g): 1.29 %ID/g
- tissue uptake at 4 h ([1]; tumor, read-out: tumor % ID/g): 0.45 %ID/g
- tissue uptake at 6 h ([1]; tumor, read-out: tumor % ID/g): 0.23 %ID/g
- tissue uptake at 24 h ([1]; tumor, read-out: tumor % ID/g): 0.009 %ID/g
- tissue uptake at 8 h ([1]; tumor, read-out: tumor % ID/g): 0.11 %ID/g
- tissue uptake at 12 h ([1]; tumor, read-out: tumor % ID/g): 0.07 %ID/g
- tissue uptake ([1]; tumor, only during the 2 hours following injection, Dau, read-out: intratumoral concentration): > 1 %ID/g
- darkening of the film at the tumor ([2]; 1 to 4 h after i.v.): considerable and inhomogeneous darkening of the film
- tumor visibility on autoradiogram ([2]; 24 h after i.v.): still visible
- LD50 [3]: 90 mg/kg
- LD 0 [4]: 60 mg/kg
- LD 100 [4]: 150 mg/kg
